Molecules are shown by their SMILES.

This assay deals with T1, Bovine Serum Albumin (BSA) (Bos taurus, UniProt P02769).
T1 construct: gene ALB
The assay can be described thus: spectrofluorometric titration (tryptophan fluorescence quenching, double-log Stern-Volmer) at […] and […] °C; Kb given is at […] °C. Format: binding. The note with it: read-out: spectrofluorometric titration (tryptophan fluorescence quenching, double-log Ste) (converted).

T1 sequence (P02769 25-607): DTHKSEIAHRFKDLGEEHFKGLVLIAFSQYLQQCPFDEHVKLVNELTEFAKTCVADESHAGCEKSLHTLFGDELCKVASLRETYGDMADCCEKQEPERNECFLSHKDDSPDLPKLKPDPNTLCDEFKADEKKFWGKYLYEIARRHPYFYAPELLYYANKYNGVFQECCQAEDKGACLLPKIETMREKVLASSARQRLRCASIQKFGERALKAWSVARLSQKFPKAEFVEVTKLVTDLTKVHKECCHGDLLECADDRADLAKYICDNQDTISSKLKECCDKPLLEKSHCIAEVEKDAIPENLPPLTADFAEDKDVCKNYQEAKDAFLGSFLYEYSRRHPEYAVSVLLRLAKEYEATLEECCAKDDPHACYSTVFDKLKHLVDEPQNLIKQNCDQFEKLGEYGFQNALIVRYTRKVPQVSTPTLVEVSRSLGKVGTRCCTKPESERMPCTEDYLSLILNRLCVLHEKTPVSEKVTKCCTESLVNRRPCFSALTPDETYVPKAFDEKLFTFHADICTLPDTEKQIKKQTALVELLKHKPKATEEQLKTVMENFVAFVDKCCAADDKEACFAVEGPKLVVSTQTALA

As for `Cc1cc(=O)n(CCC(=O)[O][Sn]([CH3])([CH3])[CH3])c2ccccc12` [Me3SnL, (3-(4-methyl-2-oxoquinolin-1(2H)-yl)propanoato)trimethyltin(IV)], the Kd is 422 nM.

Source of the values: article PMC10975498, “Trimethyltin(IV) Bearing 3-(4-Methyl-2-oxoquinolin-1(2H)-yl)propanoate Causes Lipid Peroxidation-Mediated Autophagic Cell Death in Human Melanoma A375 Cells” (Pharmaceuticals, 2024).
